According to US11485719B2, “Water soluble 3-ketocoumarins” (priority 2017, dated 2022):

What was measured:
[1] = Reactivity test, water based clear formulation (FT-IR photopolymerization); settings: 3% wt photoinitiator + 3% wt triethanolamine in UCECOAT7200/Ebecryl 350 99:1
Description: The photopolymerizable compositions for the test were prepared dissolving the photoinitiators and the co-initiator, triethanolamine, at a concentration of 3% by weight (wt) each in a mixture 99:1 wt of UCECOAT7200 and Ebecryl 350 (Allnex). The reference compound Omnirad 819 DW (45% wt in water) (COMP-1) was dissolved at a concentration of 6.6% by weight to have the same amount of active content.
(§1) The photopolymerizable compositions placed in the sample lodgment of a FT-IR (FT-IR 430-Jasco), were exposed to two different sources: • 1) a LED source (400 nm) located at a distance of 25 mm from the sample and at an angle of 30°. (Table 1) • 2) A Mercury lamp (160 W) located at a distance of 65 mm from the sample and at an angle of 30°. (Table 2)
(§2) IR spectra were acquired at constant time intervals during the photopolymerization and the reduction over the time of the area of the peaks at 1408 and 810 cm^−1 assigned to the acrylic double bonds was determined using the IR software. This allows quantifying the degree of polymerization and therefore the efficiency of the photoinitiator.
The results at 400 nm, expressed as % of polymerization over the time, are reported in Table 1 and the results with the Mercury lamp are reported in Table 2.

[2] = Reactivity test, water based black inkjet ink (FT-IR photopolymerization); settings: 5.0% wt photoinitiator + 5.0% wt triethanolamine in water based black ink
Description: The photopolymerizable compositions for the test were prepared by dissolving the photoinitiators and the co-initiator triethanolamine at a concentration of 5.0% wt each in a water based black ink for ink-jet printing. The reference compound Omnirad 819 DW (45% wt in water) (COMP-1) was dissolved at a concentration of 11% by weight to have the same amount of active content.
as §1, with “(Table 3)” for “(Table 1)”, “(Table 4)” for “(Table 2)”
as §2, with “1408 cm^−1” for “1408”
The results at 400 nm, expressed as % of polymerization over the time, are reported in Table 3 and the results with the Mercury lamp are reported in Table 4.

SMILES	% of polymerization over the time ([1]; LED source 400 nm, 0.5 sec)	% of polymerization over the time ([1]; LED source 400 nm, 2 sec)	% of polymerization over the time ([1]; Mercury lamp 160 W, 0.2 sec)	% of polymerization over the time ([1]; Mercury lamp 160 W, 1 sec)	% of polymerization over the time ([2]; LED source 400 nm, 0.5 sec)	% of polymerization over the time ([2]; LED source 400 nm, 2 sec)	% of polymerization over the time ([2]; Mercury lamp 160 W, 0.2 sec)	% of polymerization over the time ([2]; Mercury lamp 160 W, 1 sec)
COc1cc(OC)c2cc(C(=O)c3ccc(CCC(=O)O)cc3)c(=O)oc2c1 [Example 8]	7%	15%	9%	16%	–	–	–	–
COc1cc(OC)c2cc(C(=O)c3ccc(CC[N+]4(C)CCCCC4)cc3)c(=O)oc2c1.[Cl-] [Example 14]	23%	27%	15%	23%	38%	62%	67%	89%
